This passage reports IC50 results from patent US20250340561A1, “QUINAZOLINE COMPOUND FOR INDUCING DEGRADATION OF G12D MUTANT KRAS PROTEIN” (Astellas Pharma Inc., priority 2021, published 2025).

In assay [1] the test system is phosphorylation of ERK (Thr202/Tyr204). Description: Test Example 2: ERK phosphorylation inhibition action in AsPC-1, Cell ELISA. Conditions: Homo sapiens, ASPC1, 24 h, AsPC-1 cells, 0% = 1 μM trametinib. Format: cell-based, human. As for the experimental part:
Test Example 2: Evaluation of ERK Phosphorylation Inhibition Action on Human G12D Mutant KRAS-Positive Pancreatic Cancer Line AsPC-1
The ERK phosphorylation inhibition action of test compounds was evaluated by measuring phosphorylation of the 202th threonine (Thr202) and the 204th tyrosine (Tyr204) of ERK located downstream of the KRAS signal by Cell ELISA.
AsPC-1 cells were seeded on a 384-well plate (from Greiner bio-one) at 36 μL/well to give 2.0×10^4 cells per well. As for the cell culture conditions, a RPMI 1640 medium containing 10% fetal bovine serum was used in the presence of 5% CO2 at 37° C.
The next day, the test compounds (6 points having final concentrations in the range of 10 μM to 3.0 nM), trametinib (MEK inhibitor) of a final concentration of 1 μM as a positive control and DMSO, which was the solvent for the test compounds, as a negative control were diluted 100-fold with a fresh medium and were added at 4 μL per well. The cells were then cultured for 24 hours. After culturing, a 30% glyoxal solution (40% glyoxal [from Nacalai Tesque] was diluted with PBS) was quickly added at 30 μL per well, and the plate was allowed to stand for 90 minutes at room temperature to thus immobilize the cells. Then, the plate was centrifuged to remove the supernatant (using a centrifugal dehydrator machine, the supernatant was removed by the same method hereinafter), and 0.1% Triton X-100-containing PBS was added at 20 μL per well. After allowing to stand for 10 minutes at room temperature, the supernatant was removed by centrifugation, and the same operation was further repeated. Next, 0.5% SDS-containing PBS was added at 20 μL per well, and after allowing to stand at room temperature for 30 minutes, the supernatant was removed by centrifugation. Subsequently, a blocking solution (Intercept Blocking Buffer) was added at 20 μL per well, and the plate was allowed to stand for 1 hour at room temperature. The supernatant was removed by centrifugation, and an ERK (Thr202/Tyr204) phosphorylation antibody (Phospho-p44/42 MAPK (Erk 1/2) (Thr202/Tyr204) (D13.14.4E) XP Rabbit mAb; from Cell Signaling Technology) diluted 2,500-fold with a blocking solution was added at 10 or 15 μL per well as a primary antibody. The plate was allowed to stand at 4° C. overnight.
The next day, the plate was centrifuged to remove the supernatant. 0.05% Tween-20-containing PBS was added at 50 μL per well, and the supernatant was removed by centrifugation to thus wash each well. The washing was performed three times in total. After washing, Goat anti-Rabbit IgG H&L (IRDye 800CW) diluted 1,000-fold with a blocking solution was added at […] as a secondary antibody, and the plate was allowed to stand for 1 hour at room temperature. The plate was centrifuged to remove the supernatant, and each well was washed three times with 0.05% Tween-20-containing PBS in the same manner as after the primary antibody reaction. After removing the supernatant by centrifuging the plate, the plate was dried as it was with air at room temperature for 3 hours or more, and the 800-nm fluorescent signals were measured with Aerius.
With the signaling value at the time of addition of DMSO taken as 100% and with the signaling value at the time of addition of 1 μM trametinib taken as 0%, the 50% inhibition values (IC50) were calculated by Sigmoid-Emax model nonlinear regression analysis. The molecular weights of the test compounds were calculated as the molecular weights of the dihydrochloride for Example No. 22, the trihydrochlorides for Example Nos. 2-7, 9-12, 14-18 and 30, the tetrahydrochlorides for Example Nos. 19 and 46, the pentahydrochloride for Example No. 21 and the free forms forming no salt for the remaining Example Nos. The results for some test compounds of the formula (I) are shown in Table 3.

Assay [2] deals with human G12D mutant KRAS-positive pancreatic cancer line AsPC-1. Description: Test Example 3: non-anchorage-dependent cell growth inhibition, spheroid 3D cell culture. Format: cell-based. Conditions: Homo sapiens, ASPC1, 144 h, AsPC-1 spheroid 3D culture, 6 days, CellTiter Glo 2.0. As to the method: Test Example 3: Evaluation of Non-Anchorage-Dependent Cell Growth Inhibition Action on Human G12D Mutant KRAS-Positive Pancreatic Cancer Line AsPC-1
The non-anchorage-dependent cell growth inhibition action of test compounds was evaluated by spheroid 3D cell culture.
AsPC-1 cells were seeded on a low-cell-adhesive round bottom 384-well plate (PrimeSurface: from Sumitomo Bakelite) at 36 μL/well to give 5×10^2 cells per well. The cell culture was performed under the same conditions as in the Test Example 2.
The next day, the test compounds (6 points having final concentrations in the range of 10 μM to 3.0 nM) and DMSO, which was the solvent for the test compounds, as a negative control were diluted 100-fold with a fresh medium and were added at 4 μL per well. After culturing in the presence of […] at 37° C. for 6 days, CellTiter Glo 2.0 (from Promega) was added at 20 μL per well. After stirring with a plate mixer (from FINEPCR) at normal temperature for 1 hour, the luminescent signals were measured with ARVO X3 (from PerkinElmer).
With the signaling value in treatment with DMSO taken as […] and with the signaling value in the medium alone without cells taken as […], the […] inhibition values (IC50) were calculated by Sigmoid-Emax model nonlinear regression analysis. The molecular weights of the test compounds were calculated as the molecular weights of the dihydrochloride for Example No. 22, the trihydrochlorides for Example Nos. 2-7, 9-12, 14-18 and 30, the tetrahydrochlorides for Example Nos. 19 and 46, the pentahydrochloride for Example No. 21 and the free forms forming no salt for the remaining Example Nos. The results for some test compounds of the formula (I) are shown in Table 4.
(In general: ATP-based viability assays read luminescence as a measure of living cells.)

Where a name gives a salt, the structure may show the parent alone. Read-outs that look alike come from different tables or passages of the source.

With `Cc1ncsc1-c1ccc([C@H](CO)NC(=O)[C@@H]2C[C@@H](O)CN2C(=O)[C@H](C(C)C)n2cc(-c3ccc(COc4c(-c5c(C)c(F)cc6[nH]ncc56)c(C5CC5)cc5c(N6C[C@@H]7C[C@H]6CN7)nc(OC6CCOCC6)nc45)cc3)nn2)cc1` [Example 7, (4R)-1-[(2S)-2-(4-{4-[({6-cyclopropyl-4-[(1S,4S)-2,5-diazabicyclo[2.2.1]heptan-2-yl]-7-(6-fluoro-5-methyl-1H-indazol-4-yl)-2-[(oxan-4-yl)oxy]quinazolin-8-yl}oxy)methyl]phenyl}-1H-1,2,3-triazol-1-yl)-3-methylbutanoyl]-4-hydroxy-N-{(1R)-2-hydroxy-1-[4-(4-methyl-1,3-thiazol-5-yl)phenyl]ethyl}-L-prolinamide n hydrochloride], the IC50 (commonly the concentration at which inhibition is half-maximal) in assay [1] (read-out: IC50) is 17 nM; in assay [2] (read-out: IC50), 31 nM.

As to `Cc1ncsc1-c1ccc([C@H](CO)NC(=O)[C@@H]2C[C@@H](O)CN2C(=O)[C@H](C(C)C)n2cc(-c3ccc(COc4c(-c5c(C)c(F)cc6[nH]ncc56)c(C5CC5)cc5c(N6C[C@@H]7C[C@H]6CN7)nc(O[C@H](C)CN(C)C)nc45)cc3)nn2)cc1` [Example 46], the IC50 in assay [1] stood at 22 nM; in assay [2], 56 nM.

With `Cc1ncsc1-c1ccc([C@H](CO)NC(=O)[C@@H]2C[C@@H](O)CN2C(=O)[C@H](C(C)C)n2cc(-c3ccc(COc4c(-c5c(C)c(F)cc6[nH]ncc56)c(C5CC5)cc5c(N6C[C@@H]7C[C@H]6CN7)nc(OC[C@H](C)N6CCOCC6)nc45)cc3)nn2)cc1` [Example 65], the values for the IC50 in assay [1] and in assay [2] were 11 nM and 45 nM, respectively.

On to `Cc1ncsc1-c1ccc([C@H](CO)NC(=O)[C@@H]2C[C@@H](O)CN2C(=O)[C@H](C(C)C)n2cc(-c3ccc(COc4c(-c5c(C)c(F)cc6[nH]ncc56)c(C5CC5)cc5c(N6C[C@@H]7C[C@H]6CN7)nc(OCC67CCCN6CCC7)nc45)cc3)nn2)cc1` [Example 44], for which the values for the IC50 in assay [1] and in assay [2] were 95 nM and 266 nM, respectively.

`COC[C@H](C)Oc1nc(N2C[C@@H]3C[C@H]2CN3)c2cc(C3CC3)c(-c3c(C)c(F)cc4[nH]ncc34)c(OCc3ccc(-c4cn([C@H](C(=O)N5C[C@H](O)C[C@H]5C(=O)N[C@@H](CO)c5ccc(-c6scnc6C)cc5)C(C)C)nn4)cc3)c2n1` [Example 54]: the IC50 in assay [1] is 18 nM; in assay [2], 24 nM.

Consider `COCC1(COc2nc(N3C[C@@H]4C[C@H]3CN4)c3cc(C4CC4)c(-c4c(C)c(F)cc5[nH]ncc45)c(OCc4ccc(-c5cn([C@H](C(=O)N6C[C@H](O)C[C@H]6C(=O)N[C@@H](CO)c6ccc(-c7scnc7C)cc6)C(C)C)nn5)cc4)c3n2)CC1` [Example 62], for which the IC50 in assay [1] came to 15 nM; in assay [2], 34 nM.

On to `Cc1ncsc1-c1ccc(C2(NC(=O)[C@@H]3C[C@@H](O)CN3C(=O)[C@H](C(C)C)n3cc(-c4ccc(COc5c(-c6c(C)c(F)cc7[nH]ncc67)c(C6CC6)cc6c(N7C[C@@H]8C[C@H]7CN8)nc(OC7CCOCC7)nc56)cc4)nn3)CC2)cc1` [Example 6], for which the figures for the IC50 in assay [1] and in assay [2] were 58 nM and 100 nM, respectively.

As to `Cc1c(F)cc2[nH]ncc2c1-c1c(C2CC2)cc2c(N3C[C@@H]4C[C@H]3CN4)nc(OC3CCOCC3)nc2c1OCc1ccc(-c2cn([C@H](C(=O)N3C[C@H](O)C[C@H]3C(=O)N[C@@H](CO)c3ccccc3F)C(C)C)nn2)cc1` [Example 30], the IC50 stood at 185 nM in assay [1] and 323 nM in assay [2].

`COCCN1CC[C@H](Oc2nc(N3C[C@@H]4C[C@H]3CN4)c3cc(C4CC4)c(-c4c(C)c(F)cc5[nH]ncc45)c(OCc4ccc(-c5cn([C@H](C(=O)N6C[C@H](O)C[C@H]6C(=O)N[C@@H](CO)c6ccc(-c7scnc7C)cc6)C(C)C)nn5)cc4)c3n2)C1` [Example 32]: the figures for the IC50 in assay [1] and in assay [2] were 92 nM and 186 nM, respectively.

Take `Cc1ncsc1-c1ccc([C@H](CO)NC(=O)[C@@H]2C[C@@H](O)CN2C(=O)[C@H](C(C)C)n2cc(-c3ccc(COc4c(-c5c(C)c(F)cc6[nH]ncc56)c(C5CC5)cc5c(N6C[C@@H]7C[C@H]6CN7)nc(OC[C@H]6CCOC6)nc45)cc3)nn2)cc1` [Example 51]: the figures for the IC50 in assay [1] and in assay [2] were 14 nM and 27 nM, respectively.

As for `Cc1c(F)cc2[nH]ncc2c1-c1c(C2CC2)cc2c(N3C[C@@H]4C[C@H]3CN4)nc(OC3CCOCC3)nc2c1OCc1ccc(-c2cn([C@H](C(=O)N3C[C@H](O)C[C@H]3C(=O)N[C@@H](CO)c3cccc(F)c3)C(C)C)nn2)cc1` [Example 63], the IC50 stood at 72 nM in assay [1] and 133 nM in assay [2].

For the compound `Cc1ncsc1-c1ccc([C@H](CO)NC(=O)[C@@H]2C[C@@H](O)CN2C(=O)[C@H](C(C)C)n2cc(-c3ccc(COc4c(-c5c(C)c(F)cc6[nH]ncc56)c(C5CC5)cc5c(N6C[C@@H]7C[C@H]6CN7)nc(O[C@H]6CCOC6)nc45)cc3)nn2)cc1` [Example 29], the IC50 in assay [1] was 15 nM; in assay [2] it was 42 nM.

On to `Cc1ncsc1-c1ccc(C2(NC(=O)[C@@H]3C[C@@H](O)CN3C(=O)[C@@H](NC(=O)c3ccc(COc4c(-c5c(C)c(F)cc6[nH]ncc56)c(C5CC5)cc5c(N6C[C@@H]7C[C@H]6CN7)nc(OC6CCOCC6)nc45)cc3)C(C)C)CC2)cc1` [Example 1], for which the IC50 in assay [1] is 89 nM; in assay [2], 190 nM.

For `CO[C@@H](C)COc1nc(N2C[C@@H]3C[C@H]2CN3)c2cc(C3CC3)c(-c3c(C)c(F)cc4[nH]ncc34)c(OCc3ccc(-c4cn([C@H](C(=O)N5C[C@H](O)C[C@H]5C(=O)N[C@@H](CO)c5ccc(N6CCOC6=O)cc5)C(C)C)nn4)cc3)c2n1` [Example 59], the IC50 in assay [1] turned out to be 26 nM; in assay [2], 70 nM.

On to `Cc1ncsc1-c1ccc([C@H](CO)NC(=O)[C@@H]2C[C@@H](O)CN2C(=O)[C@H](C(C)C)n2cc(-c3ccc(COc4c(-c5c(C)c(F)cc6[nH]ncc56)c(C5CC5)cc5c(N6C[C@@H]7C[C@H]6CN7)nc(OCC6(CO)CC6)nc45)cc3)nn2)cc1` [Example 61], for which the figures for the IC50 in assay [1] and in assay [2] were 24 nM and 61 nM, respectively.

Turning to `CC[C@@H](C)Oc1nc(N2C[C@@H]3C[C@H]2CN3)c2cc(C3CC3)c(-c3c(C)c(F)cc4[nH]ncc34)c(OCc3ccc(-c4cn([C@H](C(=O)N5C[C@H](O)C[C@H]5C(=O)N[C@@H](CO)c5ccc(-c6scnc6C)cc5)C(C)C)nn4)cc3)c2n1` [Example 43], the concentration for half-maximal inhibition (IC50) in assay [1] was found to be 11 nM; in assay [2], 16 nM.
